The values that follow come from a melting point compilation (Tetko et al.).

The term melting point denotes the temperature, or range, at which the solid turns liquid.

Regarding `Cc1ccc(Nc2nnc(S)s2)cc1`, the melting point was in the range of 219 to 221 °C.

For `COc1ccc(CCNC(N)=S)cc1OC`, the melting point fell in the range of 159 to 161 °C.

The compound `Cc1cc(N2CCNCC2)nc(C(C)C)n1` registered a melting point of 42 to 46 °C.

For `Cn1cnnc1-c1cncc(O)c1`, the melting point fell in the range of 266 to 268 °C.

For `NS(=O)(=O)c1cc(Cl)ccc1Cl`, the melting point was 179 to 181 °C.

Compound `CC(C)COc1ccc(C2(C(=O)O)CCC2)cc1` showed a melting point of 105 to 107 °C.

Compound `CCc1nnc2cc(Cl)ncn12` showed a melting point of 108 to 110 °C.

As for `CC(C)(C)OC(=O)NCCC1CNc2ccccc21` (stereo unspecified), the melting point was 90 to 92 °C.

Compound `Cn1cc(C(N)=S)cn1` gave a melting point of 189 to 191 °C.

On to `O=Cc1c[nH]c(-c2ccccc2)n1`, for which the melting point lay in the range of 159 to 161 °C.

`O=C(O)C(Oc1cccc(F)c1)c1ccccc1` (stereo unspecified) had a melting point of 108 to 110 °C.

In the case of `CCCc1nc(C(=O)O)nn1-c1ccccc1F`, the melting point was 137 to 139 °C.

The compound `CC(C)(C)OC(=O)NC(CC(=O)O)c1ccccc1` (stereo unspecified) displayed a melting point of 135 to 137 °C.

In the case of `Sc1ncn(-c2ccccc2)n1`, the melting point fell in the range of 173 to 175 °C.

`CN1C(=O)c2ccc(N)cc2C1=O` showed a melting point of 247 to 249 °C.

With `COc1ccc(S(=O)(=O)N2CCCCC2)cc1NC(=O)CCl`, the melting point was 115 to 130 °C.

Compound `CC(C)(C)OC(=O)N1CC=C(n2c(=O)[nH]c3ccccc32)CC1` had a melting point of 201 to 203 °C.

`COc1ccc(COc2cc(Br)ccc2C(F)(F)F)cc1` displayed a melting point of 32 to 34 °C.

Regarding `O=C1CCCOc2cc(Br)ccc21`, the melting point lay within 39 to 41 °C.

As for `Cc1ccc(N)c(OCC(=O)N(C)C)c1`, the melting point was 83 to 85 °C.

On to `CC(O)C(=O)Nc1ccccc1` (stereo unspecified), for which the melting point lay in the range of 52 to 54 °C.

The compound `O=C(O)CCSCc1cn2ccccc2n1` returned a melting point of 95 to 98 °C.

Regarding `COC(=O)c1cc(C(=O)OC)cc(S(=O)(=O)Cl)c1`, the melting point was 105 to 107 °C.

For the compound `Clc1nccc(N2CCOCC2)n1`, the melting point is 111 to 113 °C.

In turn, `CCOc1ccc(NC(C)=O)cc1S(N)(=O)=O` returned a melting point of 187 to 189 °C.

The compound `NCc1ccc(OCc2ccccc2)cc1` yielded a melting point of 51 to 53 °C.

With `CC(C)(C)NS(=O)(=O)c1ccccc1NN`, the melting point was in the range of 122 to 124 °C.

The compound `COc1cccc(SCC(=O)O)c1` registered a melting point of 60 to 62 °C.

Compound `O=c1[nH]ccn(C2CC2)c1=O` gave a melting point of 161 to 163 °C.

Compound `O=C(O)c1nn(-c2ccccc2F)cc1O` had a melting point of 202 to 204 °C.

Take `Cc1c(-c2ccncc2)n[nH]c1N`: the melting point lay in the range of 160 to 162 °C.

`COc1ccc(N2C(=O)C=CC2=O)c(OC)c1` registered a melting point of 125 to 127 °C.

On to `Cc1cc(C)cc(-c2nnc(S)o2)c1`, for which the melting point was in the range of 240 to 242 °C.

Regarding `COC(=O)C1(C)CCc2ccccc2C1=O` (stereo unspecified), the melting point lay in the range of 56 to 58 °C.

`Cc1cc(S(=O)(=O)Cl)ccc1-n1cnnn1` registered a melting point of 134 to 136 °C.

In turn, `ClCc1cn(-c2ccc(Cl)cc2)nn1` returned a melting point of 139 to 141 °C.

With `COc1ccccc1C(=O)NCC(=O)O`, the melting point lay in the range of 69 to 71 °C.

Regarding `Sc1nnc(N2CCCC2)s1`, the melting point fell in the range of 179 to 181 °C.

As to `CC(=O)c1cccc(OCC(=O)O)c1`, the melting point lay within 119 to 121 °C.

As for `NC(=O)c1ccc(C(N)=S)cc1`, the melting point lay within 240 to 242 °C.

Take `O=C(CO)NC1CCCc2ccccc21` (stereo unspecified): the melting point lay in the range of 114 to 116 °C.

Turning to `Cc1nnc(S)n1Cc1ccccc1`, the melting point is 164 to 166 °C.

Turning to `CCC1CCCCC1NC(=O)c1ccnc(F)c1` (stereo unspecified), the melting point was in the range of 69 to 71 °C.

Compound `O=C(CC1CCOCC1)c1ccccc1` displayed a melting point of 60 to 62 °C.

On to `Cn1ccnc1SCC(=O)O`, for which the melting point was 88 to 90 °C.

In turn, `CC(C)(C)OC(=O)NC1CCN(CC(N)=S)CC1` yielded a melting point of 169 to 171 °C.

Consider `CC(C)OC(=O)N1CCC(C(=O)O)(C(F)(F)F)C1` (stereo unspecified), for which the melting point was in the range of 98 to 100 °C.

The compound `CC(c1nnc(S)n1-c1ccc(F)cc1)N1CCCCC1` (stereo unspecified) displayed a melting point of 115 to 117 °C.

In turn, `Cc1cccc(NC(=O)N2CCC(C(=O)O)CC2)c1` gave a melting point of 189 to 191 °C.

For the compound `Cc1ccc(SCCC(=O)NN)cc1`, the melting point is 106 to 108 °C.

Compound `CS(=O)(=O)c1cccc(S(=O)(=O)Cl)c1` had a melting point of 87 to 89 °C.

`CC1(C)C(=O)NS1(=O)=O`: the melting point lay within 137 to 139 °C.

In the case of `Cc1sc(C(=O)O)cc1[N+](=O)[O-]`, the melting point is 97 to 99 °C.

For `CC(=O)c1cnc2ccnn2c1C`, the melting point was in the range of 80 to 82 °C.

In turn, `Clc1nc(-c2ccsc2)nc2ccccc12` came in with a melting point of 122 to 124 °C.

`O=C(O)CC1Sc2ccccc2NC1=O` (stereo unspecified) yielded a melting point of 188 to 190 °C.

Turning to `COC(=O)C(=CN(C)C)C(C)=O`, the melting point lay in the range of 47 to 49 °C.

Compound `CCOC(=O)c1cnc(SC)nc1N` registered a melting point of 110 to 120 °C.

Compound `C[C@H](NC(=O)c1cccc([N+](=O)[O-])c1)C(=O)O` registered a melting point of 159 to 161 °C.

The compound `Nc1ccccc1CN1CCSCC1` displayed a melting point of 72 to 74 °C.

On to `CCOC(=O)c1cnn2c(C(=O)OCC)c(CCCO)cnc12`, for which the melting point lay in the range of 70 to 72 °C.

In the case of `O=C(CO)N1CCc2ccccc21`, the melting point fell in the range of 147 to 149 °C.

Compound `CC(C)Cn1c(=O)[nH]c(=O)c2c(S)nc(CC3CC4CCC3C4)nc21` (stereo unspecified) showed a melting point of 311 to 313 °C.

Consider `COC(=O)C(c1ccc(F)cc1)N1CCN(C(=O)OC(C)(C)C)CC1` (stereo unspecified), for which the melting point lay in the range of 82 to 84 °C.

For the compound `O=C(CCl)NCc1cnn(-c2ccccc2)c1`, the melting point lay in the range of 110 to 112 °C.

Turning to `COC(=O)CC(NC(=S)NC12CC3CC(CC(C3)C1)C2)C(=O)OC` (stereo unspecified), the melting point fell in the range of 117 to 119 °C.

For `Cc1c[nH]c(=O)n1-c1ccc(C(=O)O)cc1`, the melting point lay within 285 to 287 °C.

Turning to `CCCc1nc2ccccc2c(C(=O)O)c1CC`, the melting point is 222 to 224 °C.

On to `Cc1c(C(=O)O)cccc1-c1ccccn1`, for which the melting point is 211 to 213 °C.

`O=C(Nc1cn[nH]c1)c1ccncc1` gave a melting point of 239 to 241 °C.

`COc1cc(C(=O)O)cc([N+](=O)[O-])c1OC` showed a melting point of 193 to 195 °C.

`CCc1cccc(C)c1Nc1nnc(S)s1`: the melting point lay in the range of 155 to 157 °C.

In the case of `NS(=O)(=O)c1cc(C(F)(F)F)ccc1F`, the melting point was in the range of 127 to 129 °C.

In the case of `CC(=O)NCc1ccc(C(=O)O)o1`, the melting point lay within 171 to 173 °C.

For `CN(C1CC1)S(=O)(=O)c1ccc(N)cc1`, the melting point was in the range of 131 to 133 °C.

Take `O=C(NCC1CCCNC1)c1ccccc1` (stereo unspecified): the melting point was 82 to 84 °C.

As for `Sc1nnc(-c2ccco2)n1C1CCCCC1`, the melting point lay within 134 to 136 °C.

`Cc1ccc(C#N)nc1Br` came in with a melting point of 130 to 132 °C.

`Cc1cc(N)nn1-c1ccc(Cl)cc1Cl` showed a melting point of 101 to 103 °C.

In turn, `Cn1cc(C(=O)O)c(C(F)(F)F)c1` displayed a melting point of 205 to 207 °C.

Take `Cc1ccc(Cl)cc1N1CC(C(=O)O)CC1=O` (stereo unspecified): the melting point is 129 to 131 °C.

`O=C(O)C(=O)C=Cc1cccs1` came in with a melting point of 114 to 116 °C.

Take `Cc1c(C(=O)O)cnn1C(C)(C)C`: the melting point lay in the range of 132 to 134 °C.

The compound `Cc1cccc(C(N)CC(=O)O)c1C` (stereo unspecified) registered a melting point of 211 to 213 °C.

`O=C(O)C(=Cc1ccc(Br)cc1)c1cccs1` gave a melting point of 199 to 200 °C.

`Cc1cc(S(=O)(=O)Cl)sc1Br`: the melting point was in the range of 35 to 37 °C.

With `COc1ccc(C(C)=O)cc1CN1CCCCC1`, the melting point fell in the range of 54 to 56 °C.

On to `Nc1cccc(N2CCOC2=O)c1`, for which the melting point was 152 to 154 °C.

`Cc1oc(-c2ccc(Cl)cc2)nc1C(=O)O` gave a melting point of 235 to 237 °C.

As to `CC(C)Oc1ccc(CNC(=O)CCl)cc1`, the melting point lay in the range of 63 to 65 °C.

`CC(C)(C)OC(=O)N1CCC(N2CCCC2C(=O)O)CC1` (stereo unspecified): the melting point lay within 169 to 171 °C.

`O=S(=O)(Cl)CCS(=O)(=O)c1ccccc1` yielded a melting point of 172 to 174 °C.

On to `N#Cc1cccc(Cc2cnc(N)s2)c1`, for which the melting point is 143 to 145 °C.

`CN1CCN(C(=O)c2ccc(Br)cc2)CC1`: the melting point was in the range of 81 to 83 °C.

As to `Sc1ccc(Cl)cn1`, the melting point lay in the range of 214 to 216 °C.

Take `CCN(c1ccccc1)S(=O)(=O)c1ccc(Cl)c(C(=O)O)c1`: the melting point is 128 to 130 °C.

As for `O=C(O)C1Cc2nc[nH]c2C(c2ccccc2)N1` (stereo unspecified), the melting point was 209 to 211 °C.

Consider `CC(C)(C)OC(=O)NC1CCCCCC1C(=O)O` (stereo unspecified), for which the melting point was 123 to 125 °C.

`Nc1ccc2nc(N3CCOCC3)oc2c1` gave a melting point of 176 to 178 °C.

Turning to `Cc1cc2oc(=O)cc(CCl)c2cc1Cl`, the melting point was 218 to 220 °C.

`CNC(=O)c1ccc(NC)c([N+](=O)[O-])c1`: the melting point fell in the range of 207 to 209 °C.

For `CS(=O)(=O)Nc1cccc(Br)c1`, the melting point was 113 to 115 °C.

`CC(C)(C)c1csc(-c2ccc(O)cc2)n1` returned a melting point of 228 to 230 °C.

Consider `COC(=O)c1ccc2c(c1)CCN2`, for which the melting point lay in the range of 74 to 76 °C.

On to `C=CCNC(=O)c1ccccc1N`, for which the melting point is 92 to 94 °C.

Regarding `CC(C)(c1ccccc1)c1nnc(N)o1`, the melting point was in the range of 196 to 198 °C.

In turn, `O=C(O)c1cn(-c2cccc(Cl)c2F)nn1` had a melting point of 139 to 141 °C.

For the compound `N#Cc1cccc(NC(=O)CC2CC2)c1`, the melting point lay within 89 to 91 °C.

The compound `Cc1nc2ccccc2nc1Br` had a melting point of 102 to 104 °C.

The compound `O=C(O)CCSc1ccc(F)cc1` came in with a melting point of 76 to 78 °C.

In the case of `O=C(O)Cn1ccc2ccc(Cl)cc21`, the melting point lay within 166 to 168 °C.

The compound `Cc1ccc(-n2c(C)nnc2S)cc1` registered a melting point of 98 to 100 °C.

The compound `Nc1cc(-c2cc(Cl)cc(Cl)c2)no1` returned a melting point of 132 to 134 °C.

For `Cc1c(C(F)(F)F)cccc1S(N)(=O)=O`, the melting point lay in the range of 149 to 151 °C.

`NCCNC(=O)c1ccc(O)cc1` returned a melting point of 191 to 193 °C.

For `N#Cc1ccccc1Oc1ccccn1`, the melting point is 72 to 74 °C.

Compound `CC(C)(C)OC(=O)Nc1cc(C(=O)O)ccc1F` displayed a melting point of 177 to 179 °C.

With `COc1cccc(-c2csc(=O)[nH]2)c1`, the melting point is 154 to 156 °C.

In turn, `COC(=O)C(N)c1ccc(OC)cc1` (stereo unspecified) returned a melting point of 59 to 61 °C.

In turn, `O=C(Cc1ncc[nH]1)c1ccc(Cl)cc1F` registered a melting point of 140 to 142 °C.

In turn, `Cc1ccc(I)cc1C(=O)O` gave a melting point of 166 to 168 °C.
